Data from patent publication US20230083417A1, “THERAPEUTIC COMBINATION FOR THE TREATMENT OF BRAIN ISCHEMIA AND SAID THERAPEUTIC COMBINATION FOR USE IN THE TREATMENT OF BRAIN ISCHEMIA” (Universiteit Maastricht, priority 2020, published 2023).
Entries after “also recorded” stand apart in the source; their conditions may differ.

Assays:
[1] = tested on: C57BL/6J mice subjected to middle cerebral artery occlusion (MCAO); test: In vivo MCAO ischemia model (1 h tMCAO), infarct volume by TTC; details: for infarct volume, subthreshold doses and triple combination: 1 h post-ischemia, i.p., PTU 3 mg/kg, PPZ 1 mg/kg, riociguat 0.004 mg/kg; for infarct volume, subthreshold doses and triple combination / infarct volume: alone or combined at identical doses; for infarct size, single therapy: i.p. 1 h post-reperfusion, perphenazine 3 mg/kg, PTU 9 mg/kg, riociguat 0.01 mg/kg; for infarct size, single therapy / infarct volume: 24 h; for infarct volume: i.p. 1 h after reperfusion, L-NAME 3 mg/kg, GKT136901 10 mg/kg, BAY60-2770 0.5 μg/kg
Protocol: In vivo MCAO Ischemia Model. —C57BL/6J mice were subjected to middle cerebral artery occlusion (MCAO) during 1 h followed by 24 h of reperfusion. Mice were anesthetized with 1.5% isoflurane (Abbott) in a 70% N2O/30% O2 mixture. Core body temperature was maintained at 37° C. The external carotid artery was ligated and a rubber-coated 6.0 nylon monofilament (6021; Doccol) was inserted to occlude the origin of the right MCA for 60 minutes. Then, animals were re-anesthetized and the occluding monofilament was withdrawn to allow for reperfusion^10. L-NAME (NOSi, 3 mg/kg) or propylthiouracil (NOSi, 9 mg/kg), GKT136901 (NOXi, 10 mg/kg) or perphenazine (NOXi, 3 mg/kg) and BAY60-2770 (sGCa, 0.5 μg/kg) or riociguat (sGCs, 0.1 mg/kg), as well as combinations of these compounds were dissolved and vehicle or compound(s) were injected intraperitoneally (i.p.) 1 h after reperfusion. After 23 h of reperfusion animals were sacrificed and brains were quickly removed and cut in 3 2-mm thick coronal sections. The slices were stained for 10 minutes at 37° C. with 2% 2,3,5-triphenyltetrazolium chloride (TTC, Sigma-Aldrich) in PBS to visualize the infarct volume. The results of these measurements are shown in FIG. 1, FIG. 3, FIG. 5 and FIG. 9.
Based on a repurposing strategy, already marketed compounds validated as NOX inhibitors and NOS inhibitors were selected for further pre-clinical experimentation. Similarly, an already approved sGC stimulator was included repurposed for a non-cardiovascular indication. Wildtype mice were subjected to 1 h tMCAO and subsequently treated with each compound separately, in double combination or triple for later assessment of infarct volume 24 h post-stroke (FIG. 15A-G).

[2] = tested on: rat hippocampal brain slices; test: Rat hippocampal brain slices, OGD and re-oxygenation, cell viability by MTT; type: cell-based; details: 15 min OGD, 2 h re-oxygenation, GKT136901 0.1 μM, L-NAME 0.3 μM, BAY60-2770 0.01 μM, separately or combined at identical concentrations, vs untreated OGD
From the text: Rat Hippocampal Brain Slice Experiments. —2-3 months old adult male Sprague-Dawley rats were used. For hippocampal slices preparation and induction of oxygen deprivation and glucose deprivation (OGD), animals were decapitated and the brains were removed and transferred into ice-cold Krebs bicarbonate dissection buffer containing glucose and sucrose. Thereafter, hippocampi were dissected and sectioned in transverse slices of 250 μm. To stabilize tissue after slicing, slices were transferred to sucrose-free dissection buffer during 45 minutes at 34° C. Then, control group slices were incubated 15 minutes in a Krebs solution. Slices subjected to OGD were incubated in a Krebs buffer pre-bubbled with 95% N2/5% CO2, where 2-deoxyglucose replaced glucose. OGD period was followed by 2 h of re-oxygenation at 37° C. where slices were returned back to an oxygenated Krebs solution containing glucose^8. During the re-oxygenation period, slices were treated with 0.01 μM BAY60-2770 (BAY; sGCa), 0.1 μM GKT136901 (GKT; NOXi) and 0.3 μM L-NAME (LN; NOSi) separately and in combination at identical respective doses of: NOXi and NOSi, NOSi and sGCa, NOXi and sGCa, and NOXi, NOSi and sGCa. Cellular viability was quantified by their ability to reduce MTT. After re-oxygenation, slices were incubated with MTT (0.5 mg/ml) in Krebs bicarbonate solution for 40 minutes at 37° C. The formazan produced was solubilized by adding 200 μl dimethyl sulfoxide, giving a colored compound whose optical density was measured in an ELISA microplate reader at 540 nm^9. The results of these measurements are depicted in FIG. 2, FIG. 4, FIG. 6 and FIG. 7.

[3] = tested on: mice subjected to 45 min tMCAO; test: 45 min tMCAO in non-diabetic and STZ-diabetic mice, infarct size; type: in vivo; details: i.p., GKT137831 10 mg/kg, SMTC 1 mg/kg, BAY58-2667 0.03 mg/kg, single or combined
Protocol: Diabetes was induced in mice (6-9 weeks old) by i.p. injections of streptozotocin (STZ) (Merck Millipore, The Netherlands) dissolved in 0.5M sodium citrate buffer with a final dose of 55 mg/kg during 5 consecutive days. Blood glucose was measured daily for 7 days after the last STZ injection using a glucometer (Contor XT, Ascensia Diabetes Care, The Netherlands). Blood glucose levels higher than 12 mM 7 days after STZ injections were considered diabetic and therefore included in the study. Diabetic mice were monitored daily for any signs of welfare discomfort, and blood glucose levels were followed-up weekly (FIG. 18 (Table S2), FIG. 19 (Table S3)).
Therefore, only the combination therapy was assessed.
After animal sacrificing, brains were quickly removed and cut into four 2 mm thick coronal sections using a mouse brain slicer matrix (Zivic Instruments, The Netherlands). Brain slices were kept at 4° C. during 5 min and later stained using 2% 2,3,5-triphenyltetrazolium (TTC; Sigma-Aldrich, The Netherlands) for 15 min at room temperature in PBS to visualize the infarctions. Indirect infarct volumes were calculated by volumetry (ImageJ software, National Institutes of Health, USA) according to the following equation:
Vindirect (mm^3)=Vinfarct×(1−(Vih−Vch)/Vch)
where the term (Vih−Vch) represents the volume difference between the ischemic hemisphere and the control hemisphere and (Vih−Vch)/Vch expresses this difference as a percentage of the control hemisphere.

[4] = tested on: Human Brain Microvascular Endothelial Cells (HBMECs); test: HBMEC under hypoxic conditions, cell viability by MTT (Example 5); type: cell-based; details: 6 h hypoxia, 24 h re-oxygenation; GKT137831 0.3 μM, SMTC 0.1 μM, BAY 58-2667 0.03 μM, single or combined
Protocol: HBME cells (Cell systems, USA) between passage 3 and 9 were cultured to ˜95% confluence using a specialized cell medium and grow factors (EGM-2 MV BulletKit, Lonza, The Netherlands) enriched with 5% fetal bovine serum (FBS; Sigma-Aldrich, The Netherlands). Before being subjected to hypoxia, HBMECs were seeded at 6×10^4 cells/ml in 12 wells-plate and incubated for 24 h at 37° C. Then, the cell medium was replaced with non-FBS containing medium (2 ml/well) followed by 6 h of hypoxia (94.8% N2, 0.2% 02 and 5% CO2) at 37° C. using the hypoxia workstations (Ruskin Invivo2 400 station, The Netherlands). […] Control cells were exposed to normoxia (75% N2, 20% O2, and 5% CO2) and enriched medium during the hypoxia period.
24 h post-re-oxygenation, cell viability was assessed using the colorimetric MTT (3-(4,5-dimethylthiazol-2-yl)-2,5-diphenyltetrazolium bromide) assay (24). MTT solution (5 mg/ml) was added (100 μl/ml) and incubated for 2 h at 37° C. The formazan salt formed was solubilized by adding DMSO (250 μl/well) for later measuring spectrophotometrically its optical density at 540 nm.

[5] = tested on: Human Brain Microvascular Endothelial Cells (HBMEC); test: HBMEC subjected to hypoxia (OGD), cell viability by MTT (Example 3); type: cell-based; details: 6 h hypoxia, 24 h reperfusion; GKT136901 0.1 μM, BAY58-2667 0.01 μM, STMC 0.3 μM, alone or combined
Protocol: Human Brain Microvascular Endothelial Cells (HBMEC) Subjected to Hypoxia. —HBMEC (Cell systems, USA) between passage 3 and 9 were cultured using specialized cell medium enriched with 5% fetal bovine serum. HBMECs were seeded (6×10^4 cells/ml) in 12 wells-plates and incubated during 24 h at 37° C. Later, cell medium was replaced for non-FBS containing medium followed by 6 h of hypoxia (94.8% N2, 0.2% O2 and 5% CO2) at 37° C. using hypoxia workstations. The hypoxia period was followed by 24 h of reperfusion in presence or absence of GKT136901 (GKT, 0.1 μM; NOXi), BAY58-2667 (BAY58, 0.01 μM; sGCa) or S-methyl-1-thiocitrulline (STMC, 0.3 μM; NOSi) or a combination of the three. Control cells were exposed to normoxia (75% N2, 20% O2 and 5% CO2), normal glucose concentration and enriched medium during the hypoxia period (Basal). After 24 h reperfusion, cell viability was assessed using the colorimetric MTT assay. MTT solution (5 mg/ml) was added to each well (100 μl/ml) and incubated for 2 h at 37° C. The formazan salt formed was solubilized by adding […] DMSO and measured spectrophotometrically at 540 nm.

## OCCN1CCN(CCCN2c3ccccc3Sc3ccc(Cl)cc32)CC1 [PPZ, perphenazine]
[1]
  infarct volume, subthreshold doses and triple combination: not able to reduce infarct volume; also recorded: no reduction of infarct volume; also recorded: without effect
  infarct size, single therapy: significantly smaller infarct size

## COC(=O)[C@@H](N)CCCNC(=N)N[N+](=O)[O-] [L-NAME, N omega-Nitro-L-arginine methyl ester]
[2]
  cell viability (MTT reduction): Neither the NOSi (L-NAME), nor the sGCa (BAY60) alone was able to improve cell viability
[2]; listed as LN
  cell viability (MTT reduction): able to restore the cell viability of the hippocampal cells to some extent
[1]
  infarct volume: potent activity in reducing the infarct volume
[1]; listed as LN
  infarct volume: reduced infarct volume

## CCCc1cc(=O)[nH]c(=S)[nH]1 [PTU, propylthiouracil]
[1]
  infarct volume, subthreshold doses and triple combination: not able to reduce infarct volume; also recorded: no reduction of infarct volume; also recorded: without effect
  infarct size, single therapy: tends to reduce

## O=C(O)CCCCN(CCc1cc(F)ccc1OCc1ccc(-c2ccc(C(F)(F)F)cc2)cc1)Cc1ccc(C(=O)O)cc1 [BAY60-2770]
[2]
  cell viability (MTT reduction): Neither the NOSi (L-NAME), nor the sGCa (BAY60) alone was able to improve cell viability
[2]; listed as BAY
  cell viability (MTT reduction): did not show improved cell viability
[1]
  infarct volume: potent activity in reducing the infarct volume
[1]; listed as BAY60
  infarct volume: reduced infarct volume

## CN(C)c1cccc(-c2c3c(=O)n(-c4ccccc4Cl)[nH]c3cc(=O)n2C)c1 [GKT137831]
[3]
  infarct size 24 h post-stroke, non-diabetic mice: no effect was detected
[4]
  cell viability, normal glucose: no reduction was detected

## O=C(O)CCCCN(CCc1ccccc1OCc1ccc(CCc2ccccc2)cc1)Cc1ccc(C(=O)O)cc1 [BAY58-2667, cinaciguat]
[5]
  cell viability (MTT): lower cell viability than the control cells (Basal)
[3]
  infarct size 24 h post-stroke, non-diabetic mice: no effect was detected
[4]
  cell viability, normal glucose: no reduction was detected

## COC(=O)N(C)c1c(N)nc(-c2nn(Cc3ccccc3F)c3ncccc23)nc1N [Rio, riociguat]
[1]
  infarct volume, subthreshold doses and triple combination: not able to reduce infarct volume; also recorded: no reduction of infarct volume; also recorded: without effect
  infarct size, single therapy: significantly smaller infarct size

## Cc1c2c(=O)n(-c3ccccc3Cl)[nH]c2cc(=O)n1Cc1ccccn1 [GKT136901]
[2]; listed as GKT
  cell viability (MTT reduction): able to restore the cell viability of the hippocampal cells to some extent; also recorded: able to improve cell viability
[1]
  infarct volume: potent activity in reducing the infarct volume
[5]
  cell viability (MTT): only a relatively small improvement in cell viability

## CSC(N)=NCCC[C@H](N)C(=O)O [SMTC, S-Methyl-L-thiocitrulline]
[5]
  cell viability (MTT): only a relatively small improvement in cell viability
[3]
  infarct size 24 h post-stroke, non-diabetic mice: no effect was detected
[4]
  cell viability, normal glucose: no reduction was detected
